# Test results as given in US9487486B2, “Derivatives of nicotinic acid N-oxide, their preparation and their use as inhibitors of enzyme 3-hydroxyanthranilate-3, 4-dioxygenase” (UNIVERSITY OF MARYLAND, BALTIMORE, priority 2011, dated 2016).
# Experiments:
# [1] = molecular target: T1, 3-hydroxyanthranilate-3,4-dioxygenase (3HAO) (Homo sapiens, UniProt P46952); test: In vitro 3HAO inhibition in human brain homogenates; assay type: biochemical
# T1 construct: One hundred μl of healthy human brain homogenate; from tissue; host or cells: healthy human brain homogenate
# T1 sequence (P46952 1-286): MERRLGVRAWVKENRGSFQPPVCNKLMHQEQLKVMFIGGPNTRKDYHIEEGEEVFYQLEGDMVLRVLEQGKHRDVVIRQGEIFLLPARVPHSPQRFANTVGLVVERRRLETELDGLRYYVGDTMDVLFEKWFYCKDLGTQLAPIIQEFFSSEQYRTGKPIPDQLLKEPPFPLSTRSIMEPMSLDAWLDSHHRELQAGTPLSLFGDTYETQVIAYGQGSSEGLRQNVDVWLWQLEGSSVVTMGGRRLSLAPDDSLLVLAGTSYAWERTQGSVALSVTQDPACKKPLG
# Protocol: (§1) The following procedure has been carried out for all the six compounds prepared according to the Examples 1-6 above.
# (§2) One hundred μl of healthy human brain homogenate (1/10 dilution in bidistilled water) were further diluted (1/2, 5 v/v) with a 5 mM MES/NaOH buffer (pH 6.5) and incubated at 37° C. for 1 h in the presence of the radiolabeled substrate[14C]-3-hydroxyanthranilic acid (3.7 μM), ferrous ammonium sulphate (150 μM), ascorbic acid (0.01%). 20 μl of a solution (10 μM) of a compound of the invention were added prior to the addition of the radiolabeled substrate, to a final volume of 200 μl. The enzymatic reaction was stopped by adding 50 μl of 6% perchloric acid. The mixture was centrifuged for 5 min a 12.000 g and the supernatant was applied to a column packed with a cation-exchange resin (Dowex 50W, 0.5×2.0 cm; protonated form). [14C]-quinolinic acid formed by enzymatic reaction was eluted with 1 ml of distilled water. The eluate was added to scintillation liquid (Beckman, Ultima Gold) and radioactivity was measured with a beta-counter.
# (§3) The same procedure has been repeated by adding 20 μl of a solution (100 μM) of a compound of the invention and repeated by adding 20 μl of a solution (1000 μM) of a compound of the invention.
# [2] = molecular target: T2, 3-hydroxyanthranilate-3,4-dioxygenase (3HAO) (Rattus norvegicus, UniProt P46953); test: In vitro 3HAO inhibition in rat brain homogenates; assay type: biochemical
# T2 construct: One hundred μl of control Sprague Dawley rat brain homogenate; from tissue; host or cells: Sprague Dawley rat brain homogenate
# T2 sequence (P46953 1-286): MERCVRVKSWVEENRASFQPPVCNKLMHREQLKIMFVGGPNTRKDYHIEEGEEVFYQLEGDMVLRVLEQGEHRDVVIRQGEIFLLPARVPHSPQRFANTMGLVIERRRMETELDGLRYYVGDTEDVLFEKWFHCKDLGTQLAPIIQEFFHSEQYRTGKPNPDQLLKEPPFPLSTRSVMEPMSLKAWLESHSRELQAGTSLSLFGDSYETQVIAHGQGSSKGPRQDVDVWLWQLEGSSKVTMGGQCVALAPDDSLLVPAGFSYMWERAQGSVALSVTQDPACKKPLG
# Protocol: as §1
# as §2, with “μl of control Sprague Dawley rat brain homogenate” for “μl of healthy human brain homogenate”, “acid (3.7 µM), ferrous ammonium” for “acid (3.7 μM), ferrous ammonium”, “sulphate (150 µM), ascorbic acid” for “sulphate (150 μM), ascorbic acid”, “radiolabeled substrate, for a total” for “radiolabeled substrate, to a final”, “for a total volume of” for “to a final volume of”, “with a is beta-counter.” for “with a beta-counter.”
# as §3
# [3] = Chemical stability over time in phosphate buffer (HPLC); assay type: physicochemical; conditions: phosphate buffer pH 7.5; 10 and 100 μM; 37° C.; 24 h; FIG. 2
# Protocol: Compound I3 was dissolved in a phosphate buffer at pH 7.5 at two different concentrations (10 and 100 μM). The resulting solutions were incubated at 37° C. for 24 h.
# Chromatographic analyses were performed with a HPLC system (Shimadzu Corp., Kyoto, Japan), endowed with a UV/VIS detector, and the samples were eluted with a mixture containing methanol (0.05% TFA)/water (0.25% TFA)=20/80 at a flow rate of 1 ml/min.
# [4] = tested on: de novo production of QUIN in QUIN-lesioned rat brain; test: In vivo de novo production of QUIN from 3H-kynurenine in QUIN-lesioned rat striatum; conditions: 5 mM I3 co-infused intrastriatally with 3H-kynurenine, 7 days after lesion, 2 h, FIG. 1
# Protocol: Quinolinic acid lesions in the rat striatum were made as described by Schwarcz et al. (1983), using 300 nmol quinolinic acid per injection. In vivo assays of I3 in the lesioned striatum were performed 7 days later. [Schwarcz R, Whetsell W O Jr, Mangano R M (1983) Quinolinic acid: an endogenous metabolite that produces axon-sparing lesions in rat brain. Science 219:316-8.]
# Intrastriatal injection of 3H-kynurenine: two months-old male Sprague-Dawley rats were anesthetized with chloral hydrate (360 mg/kg, i.p.) and mounted in a David Kopf stereotaxic apparatus (Tujunga, Calif.). Through a small burr hole in the skull, […] of 3H-kynurenine [in phosphate-buffered saline (PBS), pH 7.4] was infused (6 μL over 10 min) intrastriatally. 3H-kynurenine was infused in the absence or presence of 5 mM I3. The injection coordinates were: AP: 1.0 mm anterior to bregma, L: 2.6 mm from the midline, V: 4.8 mm below dura. Animals were euthanized 2 h later and the striatum was dissected out, frozen on dry ice and stored at −80° C. Subsequently, the tissue was processed for the determination of tritiated neuroactive products of KP metabolism. […]
# Analysis of 3H-quinolinic acid: the analysis of tritiated quinolinic acid derived from 3H-kynurenine was performed essentially as described by Guidetti et al. (1995). […] Tritiated quinolinic acid was detected radiometrically (Beta-Ram; IN/US Systems, Tampa, Fla.). […]
# [5] = 1000 μM compound, human brain homogenate (I4-I6 table)
# [6] = 1000 μM compound, rat brain homogenate (I4-I6 table)
# [7] = 10 μM compound, human brain homogenate
# [8] = 100 μM compound, human brain homogenate
# [9] = 1000 μM compound, human brain homogenate (I1-I3 table)
# [10] = 10 μM compound, rat brain homogenate
# [11] = 100 μM compound, rat brain homogenate
# [12] = 1000 μM compound, rat brain homogenate (I1-I3 table)
Structure (SMILES),"% inibition of 3HAO (h) [1, 5]","% inibition of 3HAO (r) [2, 6]","% inibition of 3HAO (h) [1, 7]","% inibition of 3HAO (h) [1, 8]","% inibition of 3HAO (h) [1, 9]","% inibition of 3HAO (r) [2, 10]","% inibition of 3HAO (r) [2, 11]","% inibition of 3HAO (r) [2, 12]",Chemical stability (HPLC) [3],Effect on brain level of QUIN (de novo 3H-quinolinic acid production) [4]
"CC(C)c1cc(C(C)C)[n+]([O-])c(N)c1C(=O)O [Compound I6, 2-amino-4,6-diisopropylnicotinic acid N-oxide]",60%,70%,–,–,–,–,–,–,–,–
"Cc1ccc(C(N)=O)c(N)[n+]1[O-] [Compound I4, 2-amino-6-methylnicotinamide N-oxide]",23%,15%,–,–,–,–,–,–,–,–
"Nc1c(C(=O)O)ccc(Cl)[n+]1[O-] [Compound I2, 2-amino-6-chloronicotinic acid N-oxide]",–,–,42%,100%,100%,22%,76%,99%,–,–
"Cc1ccc(C(=O)O)c(N)[n+]1[O-] [Compound I3, 2-amino-6-methylnicotinic acid N-oxide]",–,–,80%,100%,100%,78%,97%,99%,complete chemical stability,able to block the abnormal de novo production of QUIN under excitotoxic conditions
"Cc1cc(-c2ccccc2)c(C(=O)O)c(N)[n+]1[O-] [Compound I5, 2-amino-4-phenyl-6-methylnicotinic acid N-oxide]",70%,80%,–,–,–,–,–,–,–,–
"Nc1c(C(=O)O)ccc[n+]1[O-] [Compound I1, 2-aminonicotinic acid N-oxide]",–,–,66%,93%,96%,49%,90%,97%,–,–
